From patent US20040048318A1, “Method for screening anti-proliferative compounds and method for inhibiting tumor growth” (priority 2003, published 2004) come the findings set out here.

Experiment [1] relates to methionine 14-3-3γ. Nature of the experiment: IEF-immunoblotting for induction of methionine 14-3-3γ in H1299 cells. The format is cell-based, human. As for the experimental part: (§1) H1299, a non-small cell lung carcinoma which is obtained from the American Type Culture Collection (Rockville, Md.), is cultivated in PRMI1640 supplemented with 10% fetal calf serum and glutamine, penicillin, streptomycin, and gentamycin. The H1299 cells are grown to about 70% confluenc and then cultivated with or without 25 μM bengamide. Samples of the cells are taken at 8, 16, 24 and 48 hours. At the end of the culture periods, the sample cells are washed with PBS (phosphate buffered solution, available from Sigma Chemical) and collected by scraping and centrifugation. The cell pellet is dissolved in 4 volumes of Rabilloud buffer. Rabilloud buffer contained 4% non-ionic detergent CHAPS, 7 M urea, 2 M thiourea, 10 mg/ml dithiothreitol and 1% pharmalytes (pH 3-10), which buffer is disclosed in Electrophoresis, 1997 Mar-Apr., 18 (3-4): 307-16, Rabilloud et al., Improvement of the Solubilization of Proteins in Two-dimensional electrophoresis with immobilized pH Gradients. The cell concentration was between 2 and 2.5 E7/ml.
(§2) Immobilized pH-gradient (IPG) gels (Immobiline®, Amersham Pharmacia Biotech) are re-swollen for at least 4 hours in Rabilloud buffer without pharmalytes. Samples (1 μl of cell extract) are directly loaded at a distance of about 2 cm from the anode to the surface of the gel using a comb. Focusing is carried out at 200 V for 2 hours and at 1000 or 3500 V until a 25000 Vh is reached. The temperature is maintained at 15° C. After focusing, the gel is fixed in 12% TCA-3.5% sulfosalicylic acid for 1 hour and washed in water for 1 hour. The washed gel is blotted by placing the gel on a flat surface and covering with a sheet of PVDF-membrane which was sequentially soaked in Isopropanol, water and a guanidinium chloride solution of […] Tris-HCl at pH 7.5, 4 M guanidinium chloride, 1 mg/ml DTT. The membrane is covered with 4 layers of filter paper sheets which was soaked with the guanidinium chloride solution. A polyethylene film is placed over the filter sheets and a 3 kg weight having a 14 cm by 14 cm flat surface is placed over the polyethylene film to ensure a good contact between the layers. The gel layers are undisturbed to allow transfer for overnight, then the membrane is washed with water and treated with a solution of 0.5% formaldehyde in PBS for 30 minutes. The membrane is incubated with 2% glycine in PBS at pH 7 for 30 minutes.
The membrane is then blocked with 0.05% Tween 20-1% skimmed dry milk powder in PBS for 1 hour. Commercially available antibodies against 14-3-3 (Santa Cruz) are applied for 4 hours in blocking buffer. Chemiluminescence detection (ECL-kit, Amersham Pharmacia Biotech) is carried out using the secondary antibodies supplied with the kit.
In general terms: A western blot detects proteins with antibodies after separation by electrophoresis.

In experiment [2] the test system is methionine 14-3-3γ. Description: IEF-immunoblotting for induction of methionine 14-3-3γ in U20S (osteosarcoma) cells. The following applies: for expression of the altered 14-3-3γ isoform: U20S cells treated with the compound (summary statement, no concentration given). The format is cell-based, human. As for the experimental part:
[The procedure below names another cell line; the source says it served here with some conditions changed.] as §1
as §2, with “A polyethylene film is placed over the filter sheets and a 3 kg weight having a 14 cm by 14 cm flat surface is placed over the polyethylene film to ensure a good contact between the layers. The gel layers are undisturbed to allow transfer for overnight, then the membrane is washed with water and treated with a solution of 0.5% formaldehyde in PBS for 30 minutes. The membrane is incubated with 2% glycine in PBS at pH 7 for 30 minutes.” left out

Experiment [3] concerns methionine 14-3-3γ. Nature of the experiment: IEF-immunoblotting for induction of methionine 14-3-3γ in MDA-MB435 (mammary carcinoma) cells. The format is cell-based, human. The following applies: 200 nM LAF389, within 18 hours. The method, then: [The procedure below names another cell line; the source says it served here with some conditions changed.] as §1
(§3) Immobilized pH-gradient (IPG) gels (Immobiline®, Amersham Pharmacia Biotech) are re-swollen for at least 4 hours in Rabilloud buffer without pharmalytes. Samples (1 μl of cell extract) are directly loaded at a distance of about 2 cm from the anode to the surface of the gel using a comb. […]

For experiment [4], the system named is methionine 14-3-3γ. Nature of the experiment: IEF-immunoblotting for induction of methionine 14-3-3γ in A549 (lung carcinoma) cells. Format: cell-based, human. The following applies: 200 nM LAF389, within 18 hours. The method, then:
[The procedure below names another cell line; the source says it served here with some conditions changed.] as §1, §3

For experiment [5], the system named is methionine 14-3-3γ. Description: IEF-immunoblotting of white blood cell fraction from treated rats for methionine 14-3-3γ. The format is in vivo. The following applies: 3 mg/kg three times for a day, rested 7 days, dosed three times again, blood collected after one day rest. As for the experimental part: One group of laboratory rats is treated with the bengamide analogue LAF389 of Example 2 three times for a day at the 3 mg/kg dosage, then rested for 7 days. Th rats are again dosed three times the following day with the dosage. They are rested for one day and blood samples are collected. Peripheral blood is collected by a percoll gradient centrifugation protocol. The white blood cell fraction including platelets is recovered and the pellet is lysed in IEF sample buffer. The bio-samples are analyzed with the IEF-immunoblotting analysis. Control bio-samples are obtained from a group of rats that are not treated with the bengamide analogue.

bengamide: in the experiment with methionine 14-3-3γ [1] (25 μM bengamide, samples at 8, 16, 24 and 48 hours), the “induction/accumulation of methionine 14-3-3γ (IEF-immunoblotting)” value is “gradually accumulate over the 48 hour culture period the protein that reacts with the 14-3-3γ specific antibody”. Also, the “expression of the altered 14-3-3γ isoform” value in the experiment with methionine 14-3-3γ [2] is given as “express the altered 14-3-3γ isoform”.

With `COC(C(=O)NC1CCC(OC(=O)C2CCCCC2)CNC1=O)C(O)C(O)C(O)/C=C/C(C)(C)C` (stereo not shown) [LAF389], in the experiment with methionine 14-3-3γ [1] (200 nM LAF389, samples at 8, 16, 24 and 48 hours), the “induction/accumulation of methionine 14-3-3γ (IEF-immunoblotting)” value was “induce and accumulate the protein which is reactive to the 14-3-3γ antibody”. The “induction of methionine 14-3-3γ (IEF-immunoblotting)” value in the experiment on methionine 14-3-3γ [1] (18 hours, LAF389 200 nM, 5-fluorouracil 20 μg/ml, epothilone 500 nM, doxorubicin 1 μg/ml, stauosporin 1 μM) is listed as “induced methionine 14-3-3γ”; in the experiment on methionine 14-3-3γ [3], “induce methionine 14-3-3γ within 18 hours”; with methionine 14-3-3γ [4] it was “induce methionine 14-3-3γ within 18 hours”; in the experiment with methionine 14-3-3γ [2] (U20S cells, 200 nM LAF389, within 18 hours), “induce methionine 14-3-3γ within 18 hours”. In addition, the “induction and accumulation of methionine 14-3-3γ in white blood cell fraction” value in the experiment with methionine 14-3-3γ [5] was “induce and accumulate methionine 14-3-3γ”.

As to `CO[C@@H]1[C@H](OC(=O)/C=C/C=C/C=C/C=C/C(=O)O)CC[C@]2(CO2)[C@H]1[C@@]1(C)O[C@@H]1CC=C(C)C` [fumagillin], in the experiment with methionine 14-3-3γ [2], the “expression of the altered 14-3-3γ isoform” value is “express the altered 14-3-3γ isoform”.

On to `CO[C@@H]1[C@H](OC(=O)NC(=O)CCl)CC[C@]2(CO2)[C@H]1[C@@]1(C)O[C@@H]1CC=C(C)C` [AGM-1470], for which the “induction of methionine 14-3-3γ (IEF-immunoblotting)” value with methionine 14-3-3γ [1] (AGM-1470 in place of bengamide) is “induce methionine 14-3-3γ”.
